Experimental data taken from ChEMBL document CHEMBL1140020, “Synthesis and biological evaluation of 4'-(6,7-disubstituted-2,4-dihydro-indeno[1,2-c]pyrazol-3-yl)-biphenyl-4-ol as potent Chk1 inhibitors” (Bioorg Med Chem Lett, 2007).
pEC50, pIC50: −log10 of the molar value. The source made the active and inactive calls. No cut-off for these calls is given here.

Assays:
[1] = molecular target: T1, Serine/threonine-protein kinase Chk1 (Homo sapiens, UniProt O14757); experiment: Inhibition of Chk1
T1 sequence (O14757 whole entry): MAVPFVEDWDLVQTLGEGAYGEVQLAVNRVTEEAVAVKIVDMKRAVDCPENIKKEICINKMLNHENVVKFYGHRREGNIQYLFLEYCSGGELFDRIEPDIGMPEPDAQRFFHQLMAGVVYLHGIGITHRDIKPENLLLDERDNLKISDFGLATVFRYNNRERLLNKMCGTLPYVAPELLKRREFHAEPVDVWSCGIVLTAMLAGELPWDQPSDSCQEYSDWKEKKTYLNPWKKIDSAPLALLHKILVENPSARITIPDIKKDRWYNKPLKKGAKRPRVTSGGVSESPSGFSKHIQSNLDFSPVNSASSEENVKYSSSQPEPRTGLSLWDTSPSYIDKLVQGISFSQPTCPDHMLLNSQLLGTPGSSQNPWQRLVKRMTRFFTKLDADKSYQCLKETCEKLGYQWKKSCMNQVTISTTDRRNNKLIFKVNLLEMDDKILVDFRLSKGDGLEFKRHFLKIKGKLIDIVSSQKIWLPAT

[2] = Cell cycle arrest in H1299 cells by accumulation at G2/M phase by FACS analysis; assay type: functional, cell-based; conditions: Homo sapiens, NCI-H1299
HeLa = experiment: Cytotoxicity against HeLa cells by MTS assay; assay type: cell-based; conditions: Homo sapiens
NCI-H1299 = experiment: Inhibition of doxorubicin-induced cell cycle arrest in H1299 cells by accumulation at G2/M phase by FACS analysis; assay type: functional, cell-based; conditions: Homo sapiens
SW-620 = experiment: Inhibition of camptothecin-induced cell cycle arrest in SW620 cells by accumulation at S phase by FACS analysis; assay type: functional, cell-based; conditions: Homo sapiens

Compound	pIC50 [1]	pEC50 (HeLa)	other results
COc1cc2c(cc1OCCn1ccnc1)Cc1c-2n[nH]c1-c1ccc(-c2ccc(O)cc2)cc1	8.30	–	–
COc1cc2c(cc1CCOCCCc1cccc(C)n1)Cc1c-2n[nH]c1-c1ccc(-c2ccc(O)cc2)cc1	7.21	5.39	pEC50 [2]: < 5.00; pEC50 (NCI-H1299): 6.40
COc1cc2c(cc1OCCN1CCOCC1)-c1n[nH]c(-c3ccc(-c4ccc(O)cc4)cc3)c1C2	8.30	–	–
COc1cc2c(cc1OCCc1ccccn1)Cc1c-2n[nH]c1-c1ccc(-c2ccc(O)cc2)cc1	7.52	5.47	pEC50 [2]: < 5.00; pEC50 (NCI-H1299): 6.22
COc1cc2c(cc1OCCCN1CCN(c3ccccc3OC)CC1)Cc1c(-c3ccc(-c4ccc(O)cc4)cc3)n[nH]c1-2	7.60	–	–
COc1cc2c(cc1OC(=O)NCCN1CCOCC1)-c1[nH]nc(-c3ccc(-c4ccc(O)cc4)cc3)c1C2	7.13	–	–
COc1cc2c(cc1OCc1ccncc1)Cc1c-2n[nH]c1-c1ccc(-c2ccc(O)cc2)cc1	8.10	5.49	–
COc1cc2c(cc1OCCCN1CCOCC1)Cc1c-2n[nH]c1-c1ccc(-c2ccc(O)cc2)cc1	8.22	5.37	–
COc1cc2c(cc1OC(=O)NCCN(C)C)-c1[nH]nc(-c3ccc(-c4ccc(O)cc4)cc3)c1C2	7.40	–	–
COc1cc2c(cc1OCc1cccnc1)Cc1c-2n[nH]c1-c1ccc(-c2ccc(O)cc2)cc1	7.74	< 4.23	–
COc1cc2c(cc1OCCc1cccnc1)Cc1c(-c3ccc(-c4ccc(O)cc4)cc3)n[nH]c1-2	7.89	–	–
COc1cc2c(cc1OCCCN1CCN(c3cccc(Cl)c3)CC1)-c1n[nH]c(-c3ccc(-c4ccc(O)cc4)cc3)c1C2	8.00	–	–
COc1cc2c(cc1OCc1ccccn1)-c1n[nH]c(-c3ccc(-c4ccc(O)cc4)cc3)c1C2	7.62	< 4.23	pEC50 [2]: < 4.30; pEC50 (NCI-H1299): 6.10
COc1cc2c(cc1OC(F)(F)F)-c1[nH]nc(-c3ccc(-c4ccc(O)cc4)cc3)c1C2	6.54	–	–
COc1cc2c(cc1OC(=O)NCc1ccccn1)-c1[nH]nc(-c3ccc(-c4ccc(O)cc4)cc3)c1C2	7.32	–	–
COc1cc2c(cc1OC(=O)NCCN1CCCC1)-c1[nH]nc(-c3ccc(-c4ccc(O)cc4)cc3)c1C2	7.68	–	–
COc1cc2c(cc1OCc1ccncc1)-c1[nH]nc(-c3ccc(-c4ccc(O)cc4)cc3)c1C2	7.44	–	–
COc1cc2c(cc1OCc1cccnc1)-c1n[nH]c(-c3ccc(-c4ccc(O)cc4)cc3)c1C2	7.64	4.45	pEC50 [2]: < 4.30; pEC50 (NCI-H1299): 6.52
COc1cc2c(cc1OCc1ccccn1)Cc1c(-c3ccc(-c4ccc(O)cc4)cc3)n[nH]c1-2	7.70	–	–
COc1cc2c(cc1OCCCN1CCN(c3cccc(Cl)c3)CC1)Cc1c-2n[nH]c1-c1ccc(-c2ccc(O)cc2)cc1	8.10	–	–
CCc1ccc(CCOc2cc3c(cc2OC)-c2n[nH]c(-c4ccc(-c5ccc(O)cc5)cc4)c2C3)nc1	7.64	4.53	pEC50 [2]: < 5.00; pEC50 (NCI-H1299): 6.30
COc1cc2c(cc1O)-c1[nH]nc(-c3ccc(-c4ccc(O)cc4)cc3)c1C2	8.30	–	–
COc1cc2c(cc1OC)-c1n[nH]c(-c3ccc(-c4ccc(O)cc4)cc3)c1C2	–	< 4.23	pEC50 [2]: < 4.30; Activity (SW-620): Active; pEC50 (NCI-H1299): 6.70
COc1cc2c(cc1OCCc1ccncc1)Cc1c-2n[nH]c1-c1ccc(-c2ccc(O)cc2)cc1	8.30	–	–

The next lines start with results.

pIC50 [1]	Compound	pEC50 (HeLa)	other results
8.70	CCN(CC)CC(CN(CC)CC)Oc1cc2c(cc1OC)Cc1c(-c3ccc(-c4ccc(O)cc4)cc3)n[nH]c1-2	–	–
8.40	COc1cc2c(cc1OCCCN1CCCCC1)Cc1c-2n[nH]c1-c1ccc(-c2ccc(O)cc2)cc1	5.64	pEC50 [2]: < 5.00; pEC50 (NCI-H1299): 6.40
9.15	COc1cc2c(cc1OC[C@H]1CC=CCC1)Cc1c-2n[nH]c1-c1ccc(-c2ccc(O)cc2)cc1	–	–
9.00	COc1cc2c(cc1O)Cc1c(-c3ccc(-c4ccc(O)cc4)cc3)n[nH]c1-2	–	–
9.10	COc1cc2c(cc1OCC1CCOC1)Cc1c-2n[nH]c1-c1ccc(-c2ccc(O)cc2)cc1 (stereo unspecified)	–	–
8.70	COc1cc2c(cc1OCC[C@@H]1CCCN1)Cc1c(-c3ccc(-c4ccc(O)cc4)cc3)n[nH]c1-2	–	–
10.00	COc1cc2c(cc1OC[C@@H](O)CO)Cc1c-2n[nH]c1-c1ccc(-c2ccc(O)cc2)cc1	5.46	–
8.70	COc1cc2c(cc1OCCN1CCOCC1)Cc1c(-c3ccc(-c4ccc(O)cc4)cc3)n[nH]c1-2	–	–
9.70	COc1cc2c(cc1OC1CCOCC1)Cc1c(-c3ccc(-c4ccc(O)cc4)cc3)n[nH]c1-2	–	–
9.70	COc1cc2c(cc1OCCCN1CCN(C)CC1)-c1n[nH]c(-c3ccc(-c4ccc(O)cc4)cc3)c1C2	–	–
9.10	COc1cc2c(cc1OCCN1CCCC1)Cc1c(-c3ccc(-c4ccc(O)cc4)cc3)n[nH]c1-2	–	–
8.70	COc1cc2c(cc1OC(C)CN(C)C)-c1n[nH]c(-c3ccc(-c4ccc(O)cc4)cc3)c1C2 (stereo unspecified)	–	–
8.70	COc1cc2c(cc1OCCN1CCCC1)-c1[nH]nc(-c3ccc(-c4ccc(O)cc4)cc3)c1C2	–	–
9.22	COc1cc2c(cc1OCC(C)CN(C)C)-c1n[nH]c(-c3ccc(-c4ccc(O)cc4)cc3)c1C2 (stereo unspecified)	5.80	–
8.70	COc1cc2c(cc1OC(C)CN(C)C)Cc1c-2n[nH]c1-c1ccc(-c2ccc(O)cc2)cc1 (stereo unspecified)	–	–
9.00	COc1cc2c(cc1OCCN1CCCCC1)Cc1c-2n[nH]c1-c1ccc(-c2ccc(O)cc2)cc1	–	–
9.40	COc1cc2c(cc1OC1CCOC1)Cc1c-2n[nH]c1-c1ccc(-c2ccc(O)cc2)cc1 (stereo unspecified)	4.31	–
9.10	COc1cc2c(cc1OCCC1CCCN1C)-c1[nH]nc(-c3ccc(-c4ccc(O)cc4)cc3)c1C2 (stereo unspecified)	–	–
9.15	COc1cc2c(cc1OCCCN(C)C)Cc1c-2n[nH]c1-c1ccc(-c2ccc(O)cc2)cc1	6.10	–
> 10.00	COc1cc2c(cc1OC(CO)CO)Cc1c-2n[nH]c1-c1ccc(-c2ccc(O)cc2)cc1	–	–
8.70	COc1cc2c(cc1OCCN(C)C)Cc1c-2n[nH]c1-c1ccc(-c2ccc(O)cc2)cc1	–	–
9.22	CCN1CCCC(Oc2cc3c(cc2OC)Cc2c-3n[nH]c2-c2ccc(-c3ccc(O)cc3)cc2)C1 (stereo unspecified)	–	–
9.10	COc1cc2c(cc1OCCN(C)C)-c1[nH]nc(-c3ccc(-c4ccc(O)cc4)cc3)c1C2	–	–
10.00	COc1cc2c(cc1OC[C@H](O)CO)Cc1c-2n[nH]c1-c1ccc(-c2ccc(O)cc2)cc1	5.11	pEC50 [2]: < 4.30; pEC50 (NCI-H1299): 6.70
8.52	COc1cc2c(cc1OCCn1ccnc1)-c1n[nH]c(-c3ccc(-c4ccc(O)cc4)cc3)c1C2	5.72	–
